Data: the supplement of paper PMC10331698
± gives the standard deviation of the averaged measurements.

Columns and labels:
Experiment in all cases: LOEC (log10 uM (lowest observed effect concentration))
[1] = compound: C=CC(=O)OCC(F)(F)C(F)(F)C(F)(F)C(F)(F)C(F)(F)C(F)(F)C(F)(F)C(F)F [1H,1H,9H-Perfluorononyl acrylate]
Protocol: (§1)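 BioMAP Diversity Plus panel in human primary cell co-cultures, 4 concentrations in duplicate blinded samples. Responses are log10 fold change versus DMSO control, processed with tcpl v2.1.0. A hit is called when responses at any concentration exceed the cutoff (the larger of 3*bmad or log10(1.2)); the lowest observed effect concentration (modl_ga, log10 uM) is reported for hits.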

[2] = compound: C=CC(=O)OCC(F)(F)C(F)(F)C(F)(F)C(F)(F)COC(=O)C=C [1H,1H,6H,6H-Perfluorohexane-1,6-diol diacrylate]
Protocol: as §1

[3] = compound: FC(F)(I)C(F)(F)C(F)(F)C(F)(F)C(F)(F)C(F)(F)I [1,6-Diiodoperfluorohexane]
Protocol: as §1

[4] = compound: O=C(CC(=O)C(F)(F)C(F)(F)C(F)(F)F)c1cccs1 [(Perfluorobutyryl)-2-thenoylmethane]
Protocol: as §1

Perfluoropinacol = compound: OC(C(F)(F)F)(C(F)(F)F)C(O)(C(F)(F)F)C(F)(F)F [Perfluoropinacol]
Protocol: as §1

[5] = compound: OCC(F)(F)C(F)(F)C(F)(F)C(F)(F)C(F)(F)C(F)(F)C(F)(F)C(F)(F)C(F)(F)C(F)(F)C(F)(F)F [11:1 Fluorotelomer alcohol]
Protocol: as §1

[6] = compound: OCC(F)(F)C(F)(F)C(F)(F)C(F)(F)C(F)(F)C(F)(F)C(F)(F)C(F)(F)CO [1H,1H,10H,10H-Perfluorodecane-1,10-diol]
Protocol: as §1

[7] = compound: OCC(F)(F)C(F)(F)C(F)(F)C(F)(F)C(F)(F)C(F)(F)F [6:1 Fluorotelomer alcohol]
Protocol: as §1

[8] = compound: OCCC(F)(F)C(F)(F)C(F)(F)C(F)(F)C(F)(F)C(F)(F)C(F)(F)C(F)(F)F [8:2 Fluorotelomer alcohol]
Protocol: as §1

[9] = compound: OCCCC(F)(F)C(F)(F)C(F)(F)C(F)(F)C(F)(F)C(F)(F)C(F)(F)C(F)(F)F [3-(Perfluorooctyl)propanol]
Protocol: as §1

[10] = compound: Cc1ccc(S(=O)(=O)OCC(F)(F)C(F)(F)C(F)(F)C(F)(F)C(F)(F)C(F)F)cc1 [1H,1H,7H-Perfluoroheptyl 4-methylbenzenesulfonate]
Protocol: as §1

Methotrexate = compound: CN(Cc1cnc2nc(N)nc(N)c2n1)c1ccc(C(=O)N[C@@H](CCC(=O)O)C(=O)O)cc1 [Methotrexate]
Protocol: as §1

[11] = compound: FC(F)(F)C(F)(F)C(F)(F)C(F)(F)CCI [1H,1H,2H,2H-Perfluorohexyl iodide]
Protocol: as §1

Perfluorooctanoic acid = compound: O=C(O)C(F)(F)C(F)(F)C(F)(F)C(F)(F)C(F)(F)C(F)(F)C(F)(F)F [Perfluorooctanoic acid]
Protocol: as §1

[12] = compound: O=C(O)C(F)(F)C(F)(F)C(F)(F)C(F)(F)C(F)(F)C(F)(F)C(F)(F)F [Ammonium perfluorooctanoate]
Protocol: as §1

[13] = compound: O=S(=O)(OCC(F)(F)F)C(F)(F)C(F)(F)C(F)(F)C(F)(F)F [2,2,2-Trifluoroethyl perfluorobutanesulfonate]
Protocol: as §1

Test System	LOEC (log10 uM) [1]	LOEC (log10 uM) [2]	LOEC (log10 uM) [3]	LOEC (log10 uM) [4]	LOEC (log10 uM) (Perfluoropinacol)	LOEC (log10 uM) [5]	LOEC (log10 uM) [6]	LOEC (log10 uM) [7]	LOEC (log10 uM) [8]	LOEC (log10 uM) [9]	LOEC (log10 uM) [10]	LOEC (log10 uM) (Methotrexate)	LOEC (log10 uM) [11]	LOEC (log10 uM) (Perfluorooctanoic acid)	LOEC (log10 uM) [12]	LOEC (log10 uM) [13]
3C Proliferation down	1.3	0.573 ± 0.39	1.3	0.845	0.845	-0.96 ± 0.37	1.04 ± 1	1.78	1.3	0.845						
4H Pselectin up											1.78					
IMphg ESelectin up						0.0396 ± 0.37										
BF4T MCP1 down		1.3	0.845	1.07 ± 0.32	1.78		1.07 ± 0.32		1.3	1.3	1.3					
BT Bcell Proliferation down	1.78	0.845	1.54 ± 0.34	1.3	1.54 ± 0.34	-0.96 ± 0.37	1.78		1.78	1.3		0				
BT xIL6 down	1.54 ± 0.34	0.845	1.78	1.54 ± 0.34			1.78		1.78	1.54 ± 0.34						
BE3C HLADR down		1.3	1.54 ± 0.34	1.3	1.78	-0.46 ± 0.34	1.3		1.3	1.78						
hDFCGF MIG down	1.54 ± 0.34	0.301	0.845	1.3	1.78		1.78		1.3	1.07 ± 0.32			1.78			
CASM3C Proliferation down		1.3	0.845	0.801 ± 0.71	1.3		1.78	1.78	1.3	1.3						
BE3C MIG down		1.78	1.78	1.3	1.78		1.78	1.78	1.54 ± 0.34	1.78						
LPS PGE2 up					1.3	-0.722 ± 0.71										
hDFCGF Proliferation down	1.3	0.301	0.301	0.845	0.845		1.54 ± 0.34	1.78	0.845	0.845						
BT Bcell Proliferation up														1.78		
IMphg IL10 down		1.3	0.845	1.3	1.3		1.54 ± 0.34		1.07 ± 0.32	1.3	1.07 ± 0.32			1.78		
hDFCGF MCSF down	1.54 ± 0.34	0.573 ± 0.39	0.845		1.3		1.78	1.78	1.3	0.845						
3C SRB down		1.3	1.3	1.3	1.3	-0.222			1.3	1.3	1.78					

Test System	LOEC (log10 uM) [1]	LOEC (log10 uM) [2]	LOEC (log10 uM) [3]	LOEC (log10 uM) [4]	LOEC (log10 uM) (Perfluoropinacol)	LOEC (log10 uM) [5]	LOEC (log10 uM) [6]	LOEC (log10 uM) [7]	LOEC (log10 uM) [8]	LOEC (log10 uM) [9]	LOEC (log10 uM) [10]	LOEC (log10 uM) (Methotrexate)	LOEC (log10 uM) [11]	LOEC (log10 uM) (Perfluorooctanoic acid)	LOEC (log10 uM) [12]	LOEC (log10 uM) [13]
IMphg CD69 down		1.78	1.78	0.845	1.07 ± 0.32		1.78		1.54 ± 0.34	1.78						
hDFCGF CollagenI up						-1.22										
3C IL8 up														1.78		
IMphg VCAM1 down		1.3	1.3	1.54 ± 0.34	1.54 ± 0.34		1.78		1.78	1.3						
BT xIL2 down		0.845	1.54 ± 0.34	1.78	1.78		1.78		1.3	1.78						
LPS CD69 down		1.3	1.78		1.07 ± 0.32				1.07 ± 0.32	1.54 ± 0.34					1.78	
SAg PBMCCytotoxicity down	1.54 ± 0.34	1.07 ± 0.32	1.3	1.78		-1.22	1.78		1.3	1.3						
BE3C IP10 down		1.78	1.54 ± 0.34	1.3	1.3		1.3		1.07 ± 0.32	1.3				1.78	1.78	
MyoF CollagenIV up					1.3									1.78	1.78	
BF4T VCAM1 down		0.845	1.3	1.3	1.78		1.3		1.07 ± 0.32	1.3						
BT xIL17A down	1.54 ± 0.34	0.845	1.78	1.3	1.3		1.78		1.78	1.3						
MyoF MMP1 up	1.78				1.78											
BF4T Eotaxin3 down		1.78	1.3	0.845	1.3		1.78		1.3	1.54 ± 0.34						
LPS IL1a down		1.3	1.3			-0.222			1.3	0.845						1.54 ± 0.34
SAg Proliferation down	1.3	0.845	1.3	0.845	1.3	-0.96 ± 0.37			1.3	1.3		0.477	1.78			
BE3C MMP9 down		1.54 ± 0.34	1.78	1.3	1.78	-0.222	1.78		1.3	1.78						
